According to ChEMBL document CHEMBL1201862, “PubChem BioAssay data set” (2004):
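All cell lines were grown in 96-well plates and treated with compound for 48 hours. The concentration for 50% growth inhibition is given as GI50.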 Activity calls are given as the source filed them. No stated cut-off is given here; in the data, active = GI50 up to about 1.1 µM and inactive = higher.

Experiments:
Test in all cases: NCI tumour cell line growth inhibition, 48 h
786-0 = system: 786-0
A498 = system: A498
A549 = system: A549
ACHN = system: ACHN
BT-549 = system: BT-549
CAKI-1 = system: CAKI-1
CCRF-CEM = system: CCRF-CEM
COLO 205 = system: COLO 205
DU-145 = system: DU-145
EKVX = system: EKVX
HCC 2998 = system: HCC 2998
HCT-116 = system: HCT-116
HCT-15 = system: HCT-15
HL-60 = system: HL-60
HOP-62 = system: HOP-62
HOP-92 = system: HOP-92
HT-29 = system: HT-29
Hs-578T = system: Hs-578T
IGROV-1 = system: IGROV-1
K562 = system: K562
KM12 = system: KM12
LOX IMVI = system: LOX IMVI
M14 = system: M14
MCF7 = system: MCF7
MDA-MB-231 = system: MDA-MB-231
MDA-MB-435 = system: MDA-MB-435
MDA-N = system: MDA-N
MOLT-4 = system: MOLT-4
NCI-H226 = system: NCI-H226
NCI-H23 = system: NCI-H23
NCI-H460 = system: NCI-H460
NCI-H522 = system: NCI-H522
NCI/ADR-RES = system: NCI/ADR-RES
OVCAR-3 = system: OVCAR-3
OVCAR-4 = system: OVCAR-4
OVCAR-5 = system: OVCAR-5
OVCAR-8 = system: OVCAR-8
PC-3 = system: PC-3
RPMI-8226 = system: RPMI-8226
RXF 393 = system: RXF 393
SF-268 = system: SF-268
SF-295 = system: SF-295
SF-539 = system: SF-539
SK-MEL-28 = system: SK-MEL-28
SK-MEL-2 = system: SK-MEL-2
SK-MEL-5 = system: SK-MEL-5
SK-OV-3 = system: SK-OV-3
SN12C = system: SN12C
SNB-19 = system: SNB-19
SR = system: SR
SW-620 = system: SW-620
T47D = system: T47D
TK-10 = system: TK-10
U-251 = system: U-251
UACC-257 = system: UACC-257
UACC-62 = system: UACC-62
UO-31 = system: UO-31
Malme-3M = system: Malme-3M
SNB-75 = system: SNB-75

Measured: GI50

Cc1c(C(=O)O)n2cnnc2c2ccccc12
> 100 µM: HCT-15
inactive: 786-0 > 100 µM | A498 > 100 µM | A549 > 100 µM | ACHN > 100 µM | BT-549 > 100 µM | CAKI-1 > 100 µM | CCRF-CEM > 100 µM | COLO 205 > 100 µM | DU-145 > 100 µM | EKVX > 100 µM | HCC 2998 > 100 µM | HCT-116 > 100 µM | HL-60 > 100 µM | HOP-62 > 100 µM | HOP-92 > 100 µM | HT-29 > 100 µM | Hs-578T > 100 µM | IGROV-1 > 100 µM | K562 > 100 µM | KM12 > 100 µM | LOX IMVI > 100 µM | M14 > 100 µM | MCF7 > 100 µM | MDA-MB-231 > 100 µM | MDA-MB-435 > 100 µM | MDA-N > 100 µM | MOLT-4 > 100 µM | NCI-H226 > 100 µM | NCI-H23 > 100 µM | NCI-H460 > 100 µM | NCI-H522 > 100 µM | NCI/ADR-RES > 100 µM | OVCAR-3 > 100 µM | OVCAR-4 > 100 µM | OVCAR-5 > 100 µM | OVCAR-8 > 100 µM | PC-3 > 100 µM | RPMI-8226 > 100 µM | RXF 393 > 100 µM | SF-268 > 100 µM | SF-295 > 100 µM | SF-539 > 100 µM | SK-MEL-28 > 100 µM | SK-MEL-2 > 100 µM | SK-MEL-5 > 100 µM | SK-OV-3 > 100 µM | SN12C > 100 µM | SNB-19 > 100 µM | SR > 100 µM | SW-620 > 100 µM | T47D > 100 µM | TK-10 > 100 µM | U-251 > 100 µM | UACC-257 > 100 µM | UACC-62 > 100 µM | UO-31 > 100 µM

N=C(c1cccs1)C1(N2CCCCC2)CCCCC1
inactive: 786-0 70.5 µM | A498 17.7 µM | A549 27.7 µM | ACHN 16.9 µM | BT-549 24.5 µM | CAKI-1 15.3 µM | CCRF-CEM 17.7 µM | DU-145 15.8 µM | EKVX 20.9 µM | HCC 2998 14.1 µM | HCT-116 42.2 µM | HL-60 13.2 µM | HOP-62 20.3 µM | HOP-92 20.8 µM | HT-29 17.3 µM | Hs-578T 57.4 µM | IGROV-1 22.3 µM | K562 16.4 µM | KM12 17.6 µM | LOX IMVI 28.2 µM | M14 20.3 µM | MCF7 16.6 µM | MDA-MB-231 16.6 µM | MDA-MB-435 18.2 µM | MDA-N 49.5 µM | MOLT-4 15.7 µM | Malme-3M 14.6 µM | NCI-H23 24.3 µM | NCI-H460 15.7 µM | NCI-H522 14.8 µM | NCI/ADR-RES 25.4 µM | OVCAR-3 15.3 µM | OVCAR-4 20.5 µM | OVCAR-5 19.4 µM | PC-3 18.7 µM | RPMI-8226 16.5 µM | RXF 393 14.6 µM | SF-268 21.1 µM | SF-295 18.2 µM | SK-MEL-2 16.6 µM | SK-OV-3 19.6 µM | SN12C 33.8 µM | SNB-19 17.5 µM | SR 16.9 µM | SW-620 16.6 µM | T47D 11.6 µM | TK-10 17.3 µM | U-251 16.4 µM | UACC-257 15.6 µM | UACC-62 14.9 µM | UO-31 16.1 µM
14.8 µM: HCT-15

C=C(CC)C[C@@H]1C[C@]2(C(=O)OC)c3[nH]c4ccccc4c3CCN2C1=O
16.6 µM: HCT-15
inactive: 786-0 16 µM | A498 17.6 µM | A549 14.7 µM | ACHN 26.1 µM | BT-549 22 µM | CAKI-1 16.9 µM | COLO 205 33.9 µM | DU-145 30.4 µM | EKVX 30.8 µM | HCC 2998 18.4 µM | HCT-116 14.7 µM | HL-60 23.4 µM | HOP-62 17.9 µM | HOP-92 14.7 µM | HT-29 19.5 µM | Hs-578T 14.2 µM | IGROV-1 20.3 µM | K562 18.9 µM | KM12 24.4 µM | LOX IMVI 17.3 µM | M14 15.6 µM | MCF7 20.7 µM | MDA-MB-231 24.7 µM | MDA-MB-435 19.3 µM | MDA-N 17.4 µM | MOLT-4 23 µM | Malme-3M 20.7 µM | NCI-H23 18.9 µM | NCI-H460 21.1 µM | NCI-H522 14.6 µM | NCI/ADR-RES 19.5 µM | OVCAR-3 14.1 µM | OVCAR-4 37.8 µM | OVCAR-5 21 µM | OVCAR-8 33 µM | PC-3 16.7 µM | RXF 393 12.2 µM | SF-268 21.6 µM | SF-295 14.7 µM | SF-539 16.4 µM | SK-MEL-28 19.5 µM | SK-MEL-2 17.1 µM | SK-MEL-5 17.1 µM | SK-OV-3 21 µM | SN12C 20 µM | SNB-19 17.8 µM | SNB-75 21.3 µM | SR 29.4 µM | SW-620 16.4 µM | T47D 26.2 µM | TK-10 35.3 µM | U-251 21.1 µM | UACC-257 19.2 µM | UACC-62 16.9 µM | UO-31 17.9 µM
